Laboratory results from PMC9103758 (International Journal of Molecular Sciences, 2022).
Entries after “also recorded” stand apart in the source; their conditions may differ.

What was measured:
[1] = test system: ATP-induced intracellular calcium signaling in FRT cells; experiment: Intracellular calcium measurement (Fluo-4) in FRT cells; format: cell-based, rat; conditions: 100 μM ATP
Experimental: (§1) (A) Representative Fluo4 fluorescence traces from 3 independent experiments in FRT cells. […] (B,C) Representative apical membrane currents from 3–4 independent experiments in FRT cells expressing human ANO1. […] (D) Representative YFP fluorescence traces in FRT cells expressing human ANO2. […] (E) Representative Fluo4 fluorescence traces from 3 independent experiments in FRT cells. Cells were pretreated with DCPIB for 10 min followed by application of 100 μM ATP. (F) Representative apical membrane currents in FRT cells expressing human ANO1.
FRT cells were plated on 96-well black-walled microplates and loaded with Fluo-4 NW according to the manufacturer’s protocol (Invitrogen, Carlsbad, CA, USA). […] The 96-well plates were transferred to a plate reader for fluorescence assay.

hERG K+ channel = biological target: T1, hERG K+ channel (Homo sapiens, UniProt Q12809); experiment: FluxOR thallium flux assay in HEK293T cells expressing hERG; format: cell-based
T1 construct: expressed in transfected cells; called HEK293
T1 sequence (Q12809 whole entry): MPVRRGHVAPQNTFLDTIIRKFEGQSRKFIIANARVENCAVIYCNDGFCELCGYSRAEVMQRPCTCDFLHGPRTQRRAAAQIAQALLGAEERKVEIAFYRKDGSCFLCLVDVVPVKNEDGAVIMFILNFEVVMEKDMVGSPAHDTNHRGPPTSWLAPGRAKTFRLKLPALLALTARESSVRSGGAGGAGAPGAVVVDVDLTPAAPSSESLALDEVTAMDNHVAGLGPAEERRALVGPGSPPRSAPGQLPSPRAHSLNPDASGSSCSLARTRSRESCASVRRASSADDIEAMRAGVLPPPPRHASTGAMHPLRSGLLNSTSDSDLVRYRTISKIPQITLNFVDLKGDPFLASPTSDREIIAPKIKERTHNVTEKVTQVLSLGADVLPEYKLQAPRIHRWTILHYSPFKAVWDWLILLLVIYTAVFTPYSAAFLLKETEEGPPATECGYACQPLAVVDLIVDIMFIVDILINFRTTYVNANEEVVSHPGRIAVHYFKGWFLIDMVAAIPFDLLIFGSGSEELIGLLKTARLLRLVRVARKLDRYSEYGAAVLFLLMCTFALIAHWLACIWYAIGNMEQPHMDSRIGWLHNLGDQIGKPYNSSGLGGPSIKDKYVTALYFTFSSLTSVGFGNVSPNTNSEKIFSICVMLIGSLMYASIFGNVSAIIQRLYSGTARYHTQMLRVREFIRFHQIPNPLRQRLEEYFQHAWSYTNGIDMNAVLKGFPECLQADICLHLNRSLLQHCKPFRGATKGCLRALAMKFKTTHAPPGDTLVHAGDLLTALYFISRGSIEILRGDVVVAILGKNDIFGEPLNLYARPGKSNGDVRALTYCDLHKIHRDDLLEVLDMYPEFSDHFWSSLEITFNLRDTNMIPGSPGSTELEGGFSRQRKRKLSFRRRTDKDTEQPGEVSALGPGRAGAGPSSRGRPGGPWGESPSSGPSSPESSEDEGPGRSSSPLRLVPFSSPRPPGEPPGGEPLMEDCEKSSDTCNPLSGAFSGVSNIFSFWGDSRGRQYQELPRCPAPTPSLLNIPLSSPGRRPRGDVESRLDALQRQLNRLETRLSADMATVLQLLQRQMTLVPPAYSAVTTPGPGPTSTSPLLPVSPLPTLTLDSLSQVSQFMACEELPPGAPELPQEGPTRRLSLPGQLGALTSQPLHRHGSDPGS
Experimental: (C) Summary of dose-response (mean ± S.E., n = 5). […] (F) Summary of dose−response (mean ± S.E., n = 6).
HEK293 cells stably expressing human Kv11.1 (hERG) were cultured in 96-well plates. After 48 h, the cells were incubated at 28 °C for 4 h to increase the membrane expression of hERG. The culture medium was replaced with a 80 μL/well of FluxOR (Invitrogen, Waltham, MA, USA) loading buffer and incubated for 1 h at 37 °C in the dark. After removing the loading buffer, 100 μL of assay buffer was added to each well. […] FluxOR fluorescence (excitation/emission: 490/525 nm) was recorded for 4 s before the addition of 20 μL of stimulus buffer containing thallium ions, and the fluorescence was recorded. FluxOR fluorescence was recorded and analyzed using the FLUOstar Omega microplate reader (BMG Labtech, Ortenberg, Germany) and the MARS Data Analysis Software (BMG Labtech, Ortenberg, Germany). All buffers were prepared according to the manufacturer’s instructions.

human CFTR = biological target: T2, human CFTR (Homo sapiens, UniProt P13569); experiment: Apical membrane current of CFTR in FRT cells expressing human CFTR; format: cell-based; conditions: apical membrane current, FRT cells expressing human CFTR, 20 μM forskolin, n = 5; read-out: CFTR chloride channel IC50
T2 construct: expressed in transfected cells; host or cells: Fisher rat thyroid (FRT) cells
T2 sequence (P13569 whole entry): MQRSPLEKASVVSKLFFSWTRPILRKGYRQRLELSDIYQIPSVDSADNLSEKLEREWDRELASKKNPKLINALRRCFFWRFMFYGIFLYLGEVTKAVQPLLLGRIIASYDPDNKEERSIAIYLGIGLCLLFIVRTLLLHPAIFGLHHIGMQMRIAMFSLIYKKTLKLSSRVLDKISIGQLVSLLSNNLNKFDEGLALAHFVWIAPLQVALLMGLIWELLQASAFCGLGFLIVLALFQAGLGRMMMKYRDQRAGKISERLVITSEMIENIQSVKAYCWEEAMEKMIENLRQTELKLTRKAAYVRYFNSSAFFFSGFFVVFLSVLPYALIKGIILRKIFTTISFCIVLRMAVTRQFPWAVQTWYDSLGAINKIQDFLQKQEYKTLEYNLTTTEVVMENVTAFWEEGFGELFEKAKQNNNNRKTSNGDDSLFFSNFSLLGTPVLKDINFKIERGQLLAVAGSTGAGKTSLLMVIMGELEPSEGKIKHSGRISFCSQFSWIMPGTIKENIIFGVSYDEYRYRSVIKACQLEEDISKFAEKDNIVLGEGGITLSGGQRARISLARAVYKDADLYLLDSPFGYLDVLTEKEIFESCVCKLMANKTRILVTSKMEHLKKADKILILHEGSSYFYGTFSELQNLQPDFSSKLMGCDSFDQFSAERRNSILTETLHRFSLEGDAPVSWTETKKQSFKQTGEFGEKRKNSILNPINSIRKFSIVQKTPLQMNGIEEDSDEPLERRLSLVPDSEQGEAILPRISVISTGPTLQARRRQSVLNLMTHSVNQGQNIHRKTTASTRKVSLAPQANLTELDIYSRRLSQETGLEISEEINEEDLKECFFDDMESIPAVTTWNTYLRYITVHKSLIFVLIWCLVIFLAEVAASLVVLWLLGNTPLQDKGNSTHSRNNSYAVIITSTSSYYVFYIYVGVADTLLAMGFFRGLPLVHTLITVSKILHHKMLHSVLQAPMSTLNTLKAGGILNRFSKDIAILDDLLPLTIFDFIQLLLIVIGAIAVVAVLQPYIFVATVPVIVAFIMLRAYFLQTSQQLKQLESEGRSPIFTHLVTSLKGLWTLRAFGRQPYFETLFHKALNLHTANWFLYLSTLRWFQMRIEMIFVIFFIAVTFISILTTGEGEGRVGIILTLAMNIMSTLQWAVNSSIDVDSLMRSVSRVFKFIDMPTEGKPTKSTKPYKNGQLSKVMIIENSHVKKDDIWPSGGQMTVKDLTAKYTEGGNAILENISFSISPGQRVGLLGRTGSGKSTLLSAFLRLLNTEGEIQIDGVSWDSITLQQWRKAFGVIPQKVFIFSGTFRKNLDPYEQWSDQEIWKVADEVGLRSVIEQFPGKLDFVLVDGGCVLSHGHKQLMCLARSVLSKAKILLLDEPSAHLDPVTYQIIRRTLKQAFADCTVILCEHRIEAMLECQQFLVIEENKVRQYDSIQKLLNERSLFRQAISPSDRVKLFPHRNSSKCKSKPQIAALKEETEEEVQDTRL
Description: […]. (C) Summary of dose-response (mean ± S.E., n = 5). […]. (F) Summary of dose−response (mean ± S.E., n = 6).
(§2) Snapwell inserts containing ANO1(abc) or CFTR-expressing FRT cells were mounted in Ussing chambers (Physiological Instruments, San Diego, CA). The basolateral hemichamber was filled with buffer solution (in mM): 120 NaCl, 5 KCl, 1 MgCl2, 1 CaCl2, 10 D-glucose, 2.5 HEPES, and 25 NaHCO3 (pH 7.4). The apical hemichamber was filled with buffer solution (in mM): 60 NaCl, 60 Na-gluconate, 5 KCl, 1 MgCl2, 1 CaCl2, 10 D-glucose, 2.5 HEPES, and 25 NaHCO3 (pH 7.4). FRT cells were bathed for a 10 min stabilization period and gassed with 5% CO2 and 95% O2 at 37 °C. The apical membrane current was recorded with an EVC4000 Multi-Channel V/I Clamp (World Precision Instruments, Sarasota, FL, USA) and a PowerLab 4/35 (AD Instruments, Castle Hill, Australia).

ANO1 = biological target: T3, ANO1 (Homo sapiens, UniProt Q5XXA6, DEL476-501); experiment: Apical membrane current of ANO1 in FRT cells expressing human ANO1; format: cell-based
T3 construct: expressed in transfected cells; host or cells: Fisher rat thyroid (FRT) cells; The YFP assay uses FRT-ANO1-YFP cells, which also carry the halide sensor
T3 sequence (Q5XXA6 with tags, fused parts or gaps isoform Q5XXA6-5 DEL539-564): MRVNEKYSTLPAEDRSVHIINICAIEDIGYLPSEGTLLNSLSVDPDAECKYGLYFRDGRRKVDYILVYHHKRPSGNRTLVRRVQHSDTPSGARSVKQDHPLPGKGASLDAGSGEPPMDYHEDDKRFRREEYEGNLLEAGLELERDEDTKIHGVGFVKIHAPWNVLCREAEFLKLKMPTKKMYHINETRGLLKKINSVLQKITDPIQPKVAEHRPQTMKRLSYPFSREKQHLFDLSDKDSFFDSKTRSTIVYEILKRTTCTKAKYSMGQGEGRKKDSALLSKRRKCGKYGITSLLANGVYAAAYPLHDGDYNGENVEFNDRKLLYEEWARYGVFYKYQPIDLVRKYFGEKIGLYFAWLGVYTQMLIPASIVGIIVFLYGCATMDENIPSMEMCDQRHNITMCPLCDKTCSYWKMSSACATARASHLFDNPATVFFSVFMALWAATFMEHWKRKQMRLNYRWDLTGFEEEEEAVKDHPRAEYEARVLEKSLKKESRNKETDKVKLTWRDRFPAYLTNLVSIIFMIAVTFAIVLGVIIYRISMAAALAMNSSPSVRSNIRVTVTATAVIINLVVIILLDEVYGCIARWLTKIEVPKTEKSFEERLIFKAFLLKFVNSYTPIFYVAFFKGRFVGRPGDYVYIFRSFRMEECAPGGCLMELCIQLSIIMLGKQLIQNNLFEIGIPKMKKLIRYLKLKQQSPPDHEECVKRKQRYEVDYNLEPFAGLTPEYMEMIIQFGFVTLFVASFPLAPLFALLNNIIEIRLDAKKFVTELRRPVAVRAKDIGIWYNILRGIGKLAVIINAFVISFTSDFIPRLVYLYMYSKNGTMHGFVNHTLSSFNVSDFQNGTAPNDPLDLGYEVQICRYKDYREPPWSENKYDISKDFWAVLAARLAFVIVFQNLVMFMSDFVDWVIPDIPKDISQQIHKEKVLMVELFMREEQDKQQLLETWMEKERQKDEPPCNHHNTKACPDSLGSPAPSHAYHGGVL
Experimental: as §1, §2

Structure (SMILES): COc1cccc(C(c2c(O)c3ccccc3oc2=O)c2c(O)c3ccccc3oc2=O)c1O [VI-116, 3,3′-((2-hydroxy-3-methoxyphenyl)methylene)bis(4-hydroxy-2H-chromen-2-one)]
- effect on intracellular calcium signaling ([1]; 30 μM): weak inhibitory effect
- effect on ATP-induced increase in intracellular calcium levels ([1]; up to 10 μM): no effect; also recorded: did not affect
- effect on hERG K+ channel activity (hERG K+ channel; 10 μM): minimal inhibitory effect
- IC50 (hERG K+ channel; thallium flux, HEK293T cells expressing hERG, n = 6): 89.6 µM
- IC50 (human CFTR): 12.4 µM
- effect on ANO1 channel activity (ANO1; 10 μM): minimal effect
- effect on ANO1 activation by Eact (apical membrane current) (ANO1; FRT cells expressing human ANO1, 3 μM Eact): did not alter
- effect on ANO1 activation by ATP (apical membrane current) (ANO1; FRT cells expressing human ANO1, 100 μM ATP): did not alter
